Source: patent publication US20120245159A1, “COMPOSITION AND METHOD FOR CONTROLLING ARTHROPOD PESTS” (SUMITOMO CHEMICAL COMPANY, LIMITED, priority 2009, published 2012)

Tested on: cotton aphid (Aphis gossypii)
Test: Test Example 3: pesticidal effect against cotton aphid by spray treatment (cucumber leaf disk, control value)
Format: in vivo
Conditions: composition of the compound and clothianidin; spray over cucumber leaf disk, 25° C., 5 days; summary of Table 49

SMILES | pesticidal efficacy against cotton aphid (Aphis gossypii)
FC(F)(F)COc1cnccc1-c1nc2cc(C(F)(F)F)ccc2o1 [Compound 39, 2-[3-(2,2,2-trifluoroethyl)oxypyridin-4-yl]-5-(trifluoromethyl)benzoxazole] | high pesticidal efficacy
CC(C)COc1cnccc1-c1nc2cc(C(F)(F)F)ccc2o1 [Compound 116, 2-(3-isobutoxypyridin-4-yl)-5-(trifluoromethyl)benzoxazole] | high pesticidal efficacy
CC(C)(C)COc1cnccc1-c1nc2cc(C(F)(F)F)ccc2o1 [Compound 117, 2-[3-(2,2-dimethylpropoxy)pyridin-4-yl]-5-(trifluoromethyl)benzoxazole] | high pesticidal efficacy
FC(F)(F)COc1cnccc1-c1nc2cc(C(F)(F)F)cnc2o1 [Compound 163] | high pesticidal efficacy

Tested on: brown planthopper (Nilaparvata lugens)
Test: Test Example 4: pesticidal effect against brown planthopper by foliage spray treatment of rice (control value)
Format: in vivo
Conditions: composition of the compound and clothianidin; foliage spray of rice seedlings, third-instar larvae, after 5 days; summary of Table 50

SMILES | pesticidal efficacy against brown planthopper (Nilaparvata lugens)
FC(F)(F)COc1cnccc1-c1nc2cc(C(F)(F)F)ccc2o1 [Compound 39, 2-[3-(2,2,2-trifluoroethyl)oxypyridin-4-yl]-5-(trifluoromethyl)benzoxazole] | high pesticidal efficacy
CC(C)COc1cnccc1-c1nc2cc(C(F)(F)F)ccc2o1 [Compound 116, 2-(3-isobutoxypyridin-4-yl)-5-(trifluoromethyl)benzoxazole] | high pesticidal efficacy
CC(C)(C)COc1cnccc1-c1nc2cc(C(F)(F)F)ccc2o1 [Compound 117, 2-[3-(2,2-dimethylpropoxy)pyridin-4-yl]-5-(trifluoromethyl)benzoxazole] | high pesticidal efficacy
FC(F)(F)COc1cnccc1-c1nc2cc(C(F)(F)F)cnc2o1 [Compound 163] | high pesticidal efficacy

Same assay, conditions: composition of the compound and dinotefuran; foliage spray of rice seedlings, third-instar larvae, after 5 days; summary of Table 54

SMILES | pesticidal efficacy against brown planthopper (Nilaparvata lugens)
FC(F)(F)COc1cnccc1-c1nc2cc(C(F)(F)F)ccc2o1 [Compound 39, 2-[3-(2,2,2-trifluoroethyl)oxypyridin-4-yl]-5-(trifluoromethyl)benzoxazole] | high pesticidal efficacy
CC(C)COc1cnccc1-c1nc2cc(C(F)(F)F)ccc2o1 [Compound 116, 2-(3-isobutoxypyridin-4-yl)-5-(trifluoromethyl)benzoxazole] | high pesticidal efficacy
CC(C)(C)COc1cnccc1-c1nc2cc(C(F)(F)F)ccc2o1 [Compound 117, 2-[3-(2,2-dimethylpropoxy)pyridin-4-yl]-5-(trifluoromethyl)benzoxazole] | high pesticidal efficacy
FC(F)(F)COc1cnccc1-c1nc2cc(C(F)(F)F)cnc2o1 [Compound 163] | high pesticidal efficacy

Same assay, conditions: composition of the compound and imidacloprid; foliage spray of rice seedlings, third-instar larvae, after 5 days; summary of Table 53

SMILES | pesticidal efficacy against brown planthopper (Nilaparvata lugens)
FC(F)(F)COc1cnccc1-c1nc2cc(C(F)(F)F)ccc2o1 [Compound 39, 2-[3-(2,2,2-trifluoroethyl)oxypyridin-4-yl]-5-(trifluoromethyl)benzoxazole] | high pesticidal efficacy
CC(C)COc1cnccc1-c1nc2cc(C(F)(F)F)ccc2o1 [Compound 116, 2-(3-isobutoxypyridin-4-yl)-5-(trifluoromethyl)benzoxazole] | high pesticidal efficacy
CC(C)(C)COc1cnccc1-c1nc2cc(C(F)(F)F)ccc2o1 [Compound 117, 2-[3-(2,2-dimethylpropoxy)pyridin-4-yl]-5-(trifluoromethyl)benzoxazole] | high pesticidal efficacy
FC(F)(F)COc1cnccc1-c1nc2cc(C(F)(F)F)cnc2o1 [Compound 163] | high pesticidal efficacy

Same assay, conditions: composition of the compound and nitenpyram; foliage spray of rice seedlings, third-instar larvae, after 5 days; summary of Table 51

SMILES | pesticidal efficacy against brown planthopper (Nilaparvata lugens)
FC(F)(F)COc1cnccc1-c1nc2cc(C(F)(F)F)ccc2o1 [Compound 39, 2-[3-(2,2,2-trifluoroethyl)oxypyridin-4-yl]-5-(trifluoromethyl)benzoxazole] | high pesticidal efficacy
CC(C)COc1cnccc1-c1nc2cc(C(F)(F)F)ccc2o1 [Compound 116, 2-(3-isobutoxypyridin-4-yl)-5-(trifluoromethyl)benzoxazole] | high pesticidal efficacy
CC(C)(C)COc1cnccc1-c1nc2cc(C(F)(F)F)ccc2o1 [Compound 117, 2-[3-(2,2-dimethylpropoxy)pyridin-4-yl]-5-(trifluoromethyl)benzoxazole] | high pesticidal efficacy
FC(F)(F)COc1cnccc1-c1nc2cc(C(F)(F)F)cnc2o1 [Compound 163] | high pesticidal efficacy

Same assay, conditions: composition of the compound and thiamethoxam; foliage spray of rice seedlings, third-instar larvae, after 5 days; summary of Table 52

SMILES | pesticidal efficacy against brown planthopper (Nilaparvata lugens)
FC(F)(F)COc1cnccc1-c1nc2cc(C(F)(F)F)ccc2o1 [Compound 39, 2-[3-(2,2,2-trifluoroethyl)oxypyridin-4-yl]-5-(trifluoromethyl)benzoxazole] | high pesticidal efficacy
CC(C)COc1cnccc1-c1nc2cc(C(F)(F)F)ccc2o1 [Compound 116, 2-(3-isobutoxypyridin-4-yl)-5-(trifluoromethyl)benzoxazole] | high pesticidal efficacy
CC(C)(C)COc1cnccc1-c1nc2cc(C(F)(F)F)ccc2o1 [Compound 117, 2-[3-(2,2-dimethylpropoxy)pyridin-4-yl]-5-(trifluoromethyl)benzoxazole] | high pesticidal efficacy
FC(F)(F)COc1cnccc1-c1nc2cc(C(F)(F)F)cnc2o1 [Compound 163] | high pesticidal efficacy
